Data published in patent publication US7786141B2 (Vertex Pharmaceuticals Incorporated, priority 2004, dated 2010).
Read-outs that look alike come from different tables or passages of the source.

Tests used:
[1] = target: T1, M1 muscarinic receptor (Homo sapiens, UniProt P11229); assay: Functional mobilization of intracellular calcium (FLIPR) in M1-CHO cells; type: cell-based
T1 construct: expressed in transfected cells; host or cells: CHO (M1-CHO)
T1 sequence (P11229 1-460): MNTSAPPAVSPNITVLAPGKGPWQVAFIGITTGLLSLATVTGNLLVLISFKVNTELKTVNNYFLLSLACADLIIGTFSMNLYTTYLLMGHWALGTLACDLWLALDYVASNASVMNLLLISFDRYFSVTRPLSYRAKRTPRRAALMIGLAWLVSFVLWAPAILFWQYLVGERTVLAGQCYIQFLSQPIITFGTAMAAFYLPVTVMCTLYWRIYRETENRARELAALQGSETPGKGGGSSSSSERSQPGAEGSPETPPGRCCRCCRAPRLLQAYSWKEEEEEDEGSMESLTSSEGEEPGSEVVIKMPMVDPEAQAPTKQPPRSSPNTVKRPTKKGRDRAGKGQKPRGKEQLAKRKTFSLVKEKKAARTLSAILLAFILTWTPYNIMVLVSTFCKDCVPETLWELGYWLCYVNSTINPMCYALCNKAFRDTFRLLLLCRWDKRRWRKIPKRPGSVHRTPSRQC
Method: (§1) Functional Mobilization of Intracellular Calcium to Determine Muscarinic Receptor Activity:
(§2) CHO cells expressing muscarinic receptors (M1 to M5) are grown as monolayers in tissue culture flasks at 37° C. in a humidified atmosphere containing 5% CO2 and passaged every 3-5 days. The growth media is Dulbecco's modified eagles medium (DMEM, Gibco Cat# 12430-054), containing 25 mM Hepes and supplemented with Fetal Bovine Serum (Hyclone, cat# SH30071.03), 0.1 mM of MEM non-essential amino acids (GIBCO, Cat# 11140-050), 1 mM MEM Sodium Pyruvate (GIBCO Cat# 11360-070) and 100 units/ml of Penicillin G and 100 μg/ml of Streptomycin (GIBCO Cat# 15140-122). The recombinant muscarinic receptor cell lines are grown under antibiotic pressure with media containing 25 μg/ml zeocin and 500 μg/ml G418 (M1-CHO), 4 μg/ml puromycin, 50 μg/ml zeocin and 2.5 μg/ml blasticidin (M2 and M4-CHO) or 50 μg/ml zeocin and 4 μg/ml puromycin (M3 and M5-CHO).
(§3) Cells are harvested at 80-90% confluence using Versene (GIBCO Cat# 15040-066), collected by centrifugation and seeded 18-24 hrs prior to running the calcium assay at a density of 5,000 cells/well in back-walled, clear-bottomed 384-well plates (BD Biocoat, poly-D-lysine, Cat#356663). The day of the experiment, the cells are washed with a plate washer (Bioteck Instruments, ELX 405) using bath 1 buffer (140-mM NaCl, 4.5-mM KCl, 2-mM CaCl2, 1-mM MgCl2, 10-mM Hepes-Na, 10-mM Glucose, pH 7.4, with NaOH) containing 1 mM Probenecid. Next, the calcium dye Fluo-3 (25 μl/well of Fluo-3 AM at 4 μM, Molecular Probes F-1241, in Bath 1 buffer containing 1 mM Probenecid) is added to the 25 μl of Bath 1 remaining in each well after the plate wash and the dye is loaded at 37° C. in the tissue culture incubator for 60-90 min. The fluorescent dye is removed using the plate washer with Bath 1 containing 1 mM Probenecid, leaving 25 μl/well of this solution after the wash. Alternatively, cells can be loaded with the calcium indicator from Molecular Devices (Calcium 3 Assay Reagents, Cat # R7181) adding 5 μl of a 5× solution dye in Bath 1 containing 1 mM Probenecid (10 ml per dye flask cat# R7182 to generate a solution 20×) to 20 μl of the same buffer. After loading for 60 min, the experiment can be run without having to remove the dye.
(§4) Compounds are prepared at a 2× fold concentration in a 96-well plate (round bottom, Costar Corning cat# 3656), by reconstituting the pre-spotted compounds in bath 1 containing 1 mM probenecid. The final concentration DMSO is 0.5%, and the amount of DMSO is normalized across the assay plate. To determine an agonist action of the compounds on muscarinic receptors, the reconstituted compounds are added (25 μl compound/well) to the cell assay plate (containing 25 μl/well) using the multi-channel robotic system of the FLIPR 3 Instrument (Molecular Devices, Sunnyvale, Calif.). To determine a functional inhibitory action of the compounds on muscarinic receptors, the reconstituted compounds are added (25 μl compound/well) to the assay plate and pre-incubated for 15 min prior to adding 25 μl of Carbachol at 3× the EC80 for each muscarinic subtype. Alternatively, the compounds can be co-applied simultaneously with the agonist. In both assay modes, the fluorescence is recorded for 60 sec (excitation wavelength is […] and emission wavelength 540 nm) using the FLIPR 3 instrument.
(§5) The potency, efficacy and selectivity of the muscarinic compounds were evaluated by screening the compound activity across the whole family (M1 to M5 cells). Compounds were also screened for activity on other proteins such as other GPCRs and ion channels to determine selectivity on M4 receptors.

[2] = target: T2, M4 muscarinic receptor (Homo sapiens, UniProt P08173); assay: Functional mobilization of intracellular calcium (FLIPR) in M4-CHO cells; type: cell-based
T2 construct: expressed in transfected cells; host or cells: CHO (M4-CHO)
T2 sequence (P08173 1-479): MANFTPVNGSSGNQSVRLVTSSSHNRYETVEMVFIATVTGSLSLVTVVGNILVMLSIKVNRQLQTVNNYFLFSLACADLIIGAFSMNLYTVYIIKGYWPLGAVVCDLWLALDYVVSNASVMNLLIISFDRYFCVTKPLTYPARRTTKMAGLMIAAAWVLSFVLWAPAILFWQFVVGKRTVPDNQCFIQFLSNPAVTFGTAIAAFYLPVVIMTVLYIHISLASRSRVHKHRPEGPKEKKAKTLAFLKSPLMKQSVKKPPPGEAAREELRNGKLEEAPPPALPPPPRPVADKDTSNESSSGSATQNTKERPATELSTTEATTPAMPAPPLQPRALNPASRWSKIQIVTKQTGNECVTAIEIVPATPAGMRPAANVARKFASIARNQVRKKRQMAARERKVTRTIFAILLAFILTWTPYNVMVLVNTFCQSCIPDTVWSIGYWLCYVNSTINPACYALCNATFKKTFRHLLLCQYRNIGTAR
Method: as §1, §2, §3, §4, §5

[3] = Table 4, 100% efficacy is the maximum response obtained with the Carbachol control
[4] = Table 4, modulating M1 receptor
[5] = Table 4, modulating M4 receptor
[6] = M1 receptor, calcium mobilization
[7] = M1 receptor, calcium mobilization, read-out: M1 Efficacy
[8] = M4 receptor, calcium mobilization
[9] = M4 receptor, calcium mobilization, read-out: M4 Efficacy
[10] = Table 4, M1 receptor, calcium mobilization (FLIPR)
[11] = Table 4, M4 receptor, calcium mobilization (FLIPR)

| Compound | Emax [1, 3] | M1 Activity [1, 4] | Emax [2, 3] | M4 Activity [2, 5] | M1 Activity [1, 6] | Emax [1, 7] | M4 Activity [2, 8] | Emax [2, 9] | M1 Activity [1, 10] | M4 Activity [2, 11] |
| --- | --- | --- | --- | --- | --- | --- | --- | --- | --- | --- |
| CC(=O)N[C@H]1CC2(CCN(C3CCN(c4cccc(F)n4)CC3)CC2)c2ccccc21 [compound 708] | 25 to 100% | xxx (activity was measured to be less than 2.0 μM) | 25 to 100% | xxx (activity was measured to be less than 2.0 μM) |  |  |  |  |  |  |
| O=C(OC1CCC1)N1CC2(CCN(C3CC4CCC(C3)N4C(=O)O[C@H]3CCOC3)CC2)c2cc(F)ccc21 (stereo partly drawn) [compound 125] |  |  |  |  | xxx (activity was measured to be less than 0.1 μM) | 65 to 85% | xx (activity was measured to be between 0.1 μM and 1.0 μM) | < 65% |  |  |
| COC(=O)N1CCC(N2CCC3(CC2)CN(C(C)=O)c2ccc(F)cc23)CC1 [compound 374] |  |  |  |  | xx (activity was measured to be between 0.1 μM and 1.0 μM) | 65 to 85% | x (activity was measured to be greater than 1.0 μM) | 65 to 85% |  |  |
| CC(=O)N[C@H]1CCC2(CCN(C3CCN(C(=O)OC(C)(C)C)CC3)CC2)c2ccccc21 [compound 912] | 25 to 100% |  | < 25% |  |  |  |  |  | xxx (activity was measured to be less than 2.0 μM) | x (activity was measured to be greater than 5.0 μM) |
| COCCOC(=O)N1C2CCC1CC(N1CCC3(CC1)C(=O)Nc1ccccc13)C2 (stereo not drawn) [compound 71] |  |  |  |  | xxx (activity was measured to be less than 0.1 μM) | < 65% | xx (activity was measured to be between 0.1 μM and 1.0 μM) | < 65% |  |  |
| O=C(C1CCC1)N1C2CCC1CC(N1CCC3(CC1)COc1ccc(F)cc13)C2 (stereo not drawn) [compound 134] |  |  |  |  | xxx (activity was measured to be less than 0.1 μM) | > 85% | xx (activity was measured to be between 0.1 μM and 1.0 μM) | < 65% |  |  |
| C1=CC2CC1CC2CN1CCC2(CCCc3ccccc32)CC1 (stereo not drawn) [compound 449] | 25 to 100% | xx (activity was measured to be between 2.0 μM and 5.0 μM) | 25 to 100% | xxx (activity was measured to be less than 2.0 μM) |  |  |  |  |  |  |
| CCOC(=O)N1CCC(N2CCC3(CC2)CN(C(C)=O)c2c(-c4ccc(C)cc4)cccc23)CC1 [compound 768] | 25 to 100% | x (activity was measured to be greater than 5.0 μM) | < 25% | x (activity was measured to be greater than 5.0 μM) |  |  |  |  |  |  |
| CC(=O)N[C@H]1CCC2(CCN(CC3CCCCC3)CC2)c2ccccc21 [compound 605] | 25 to 100% | xxx (activity was measured to be less than 2.0 μM) | 25 to 100% | xxx (activity was measured to be less than 2.0 μM) |  |  |  |  |  |  |
| CCOC(=O)N1CCC(N2CCC3(CC2)CN(c2ccccn2)c2ccc(F)cc23)CC1 [compound 585] | 25 to 100% | xxx (activity was measured to be less than 2.0 μM) | 25 to 100% | xxx (activity was measured to be less than 2.0 μM) |  |  |  |  |  |  |
| CCOC(=O)N1CCC(N2CCC3(CC2)CN(C(C)=O)c2ccc(CC)cc23)CC1 [compound 137] |  |  |  |  | xxx (activity was measured to be less than 0.1 μM) | > 85% | x (activity was measured to be greater than 1.0 μM) | > 85% |  |  |
| CN(C)C(=O)N1CC2(CCN(C3CCN(c4nccnc4C#N)CC3)CC2)c2cc(F)ccc21 [compound 497] | 25 to 100% | xx (activity was measured to be between 2.0 μM and 5.0 μM) | 25 to 100% | xx (activity was measured to be between 2.0 μM and 5.0 μM) |  |  |  |  |  |  |
| CC(=O)N1CC2(CCN(C3CCCN(C(=O)OCCF)CC3)CC2)c2cc(F)ccc21 (stereo not drawn) [compound 168] |  |  |  |  | xx (activity was measured to be between 0.1 μM and 1.0 μM) |  | xx (activity was measured to be between 0.1 μM and 1.0 μM) | > 85% |  |  |
| CC(=O)N[C@H]1CC2(CCN(CC(=O)N3C[C@@H](C)O[C@@H](C)C3)CC2)c2ccccc21 [compound 782] | < 25% | x (activity was measured to be greater than 5.0 μM) | < 25% | x (activity was measured to be greater than 5.0 μM) |  |  |  |  |  |  |
| CCOC(=O)N1CCC(N2CCC3(CC2)CN(c2ccccc2F)c2ccc(F)cc23)CC1 [compound 991] | 25 to 100% |  | 25 to 100% |  |  |  |  |  | xxx (activity was measured to be less than 2.0 μM) | xxx (activity was measured to be less than 2.0 μM) |
| Cc1ccc2c(c1)C1(CCN(C3CC4CCC3C4)CC1)CN2C(=O)OC(C)(C)C (stereo not drawn) [compound 116] |  |  |  |  | xxx (activity was measured to be less than 0.1 μM) | 65 to 85% | xx (activity was measured to be between 0.1 μM and 1.0 μM) | < 65% |  |  |
| COc1cc2c(cc1OC)C1(CCN(CC3CCCCC3)CC1)C[C@@H]2N(C(C)=O)[C@@H](C)c1ccccc1 [compound 931] | < 25% |  | < 25% |  |  |  |  |  | x (activity was measured to be greater than 5.0 μM) | x (activity was measured to be greater than 5.0 μM) |
| CCOC(=O)N1CCC(N2CCC3(CC2)CN(C(C)=O)c2ccc(Br)cc23)CC1 [compound 769] | 25 to 100% | xxx (activity was measured to be less than 2.0 μM) | 25 to 100% | xxx (activity was measured to be less than 2.0 μM) |  |  |  |  |  |  |
| CCOC(=O)N1CCC(N2CCC3(CC2)CN(C(C)=O)c2cccc(C(F)(F)F)c23)CC1 [compound 615] | 25 to 100% | xxx (activity was measured to be less than 2.0 μM) | < 25% | xx (activity was measured to be between 2.0 μM and 5.0 μM) |  |  |  |  |  |  |
